Results reported in patent US20230346773A1, “USE OF PCSK9 INHIBITOR IN PREPARATION OF PRODUCT FOR TREATING MULTIPLE DISEASES” (priority 2020, published 2023).
Marks after values point to notes of the source that are not given here.

B1: Evolocumab (antibody, chains of the INN, looked up, V domains shown)
VH: EVQLVQSGAEVKKPGASVKVSCKASGYTLTSYGISWVRQAPGQGLEWMGWVSFYNGNTNYAQKLQGRGTMTTDPSTSTAYMELRSLRSDDTAVYYCARGYGMDVWGQGTTVTVSS
VL: ESALTQPASVSGSPGQSITISCTGTSSDVGGYNSVSWYQQHPGKAPKLMIYEVSNRPSGVSNRFSGSKSGNTASLTISGLQAEDEADYYCNSYTSTSMVFGGGTKLTVL
notes: PCSK9 monoclonal antibody jointly developed by Amgen and Astellas, trade name Repatha

How the values were obtained:
[1] = test system: androgenetic alopecia (SA) rat model; assay: Androgenetic alopecia (SA) rat model induced by testosterone propionate; type: in vivo, Wistar rats; settings: for Skin hair follicles and sebaceous glands: number of rats graded ++ / Skin hair follicles and sebaceous glands: number of rats graded ± / Skin hair follicles and sebaceous glands: number of rats graded + / Skin hair follicles and sebaceous glands: number of rats graded − / Skin hair follicles and sebaceous glands: number of rats graded +++: 10 rats, after 60 days; for Skin hair follicles and sebaceous glands: number of rats graded ++: few follicles with cystic degeneration, sebaceous glands mild hyperplasia and hypertrophy; for Skin hair follicles and sebaceous glands: number of rats graded ±: no hyperplasia in the dermis, limited lesions of hair follicles and sebaceous glands, no subcutaneous inflammation; for Skin hair follicles and sebaceous glands: number of rats graded +: no obvious hyperplasia in dermis, obviously cystic follicles, no inflammation; for Skin hair follicles and sebaceous glands: number of rats graded −: normal skin dermal tissue cells, subcutaneous hair follicles and sebaceous glands; for Skin hair follicles and sebaceous glands: number of rats graded +++: segmental hyperplasia, degenerated follicles, hyperplasia of sebaceous glands, mild inflammatory hyperplasia; for 15 d hair length / 30 d hair length / 45 d hair length / 60 d hair length: rats; for 15 d hair length: 15 days after administration; for 30 d hair length: 30 days after administration; for 45 d hair length: 45 days after administration; for 60 d hair length: 60 days after administration
Method: SPF grade Wistar rats were selected and randomly divided into compound group 1 (skin applied with 5% R-IMPP solution), compound group 2 (skin applied with 5% PF 06446846 solution), and compound group 3 (skin applied with 5% SBC-115076 solution), compound group 4 (skin applied with 5% SBC-110736 solution), monoclonal antibody group 1 (subcutaneous injection of PCSK9 monoclonal antibody ab84041, 5 mg/kg·d), monoclonal antibody group 2 (subcutaneous injection of Evolocumab, 5 mg/kg·d), monoclonal antibody group 3 (subcutaneous injection of Alirocumab, 5 mg/kg·d), PCSK9 RNAi inhibitor group-1 (skin applied with 5% PCSK9 small interfering RNA-1 solution), PCSK9 RNAi inhibitor group-2 (skin applied with 5% PCSK9 small interfering RNA-2 solution), PCSK9 RNAi inhibitor group-3 (skin applied with 5% PCSK9 small interfering RNA-3 solution), and polypeptide group (subcutaneous injection of Abcam company ab32727, 3 mg/kg·d), positive control group (skin smeared with 5% minoxidil tincture), negative control group (smeared with 75% ethanol), model control group (smeared with 75% ethanol), 10 rats in each group, half male and half female.
Before the experiment, each rat selected an area of 4 cm×5 cm on the back to remove the hair as the observation area. Except for the negative control group, the rats were subcutaneously injected with testosterone propionate injection [[…]] at the back of the neck, once a day for 60 consecutive days to establish the SA model. […] At the same time, the rats in the corresponding drug group were smeared or subcutaneously injected on the skin of the observation area of the rats in the drug group, smeared 1 ml/(per time), twice a day, with an interval of 8 hours, and administered by subcutaneous injection, once a day. The negative control group and the model control group were smeared with excipient (75% ethanol solution), 1 mL one rat per time, twice a day, for 60 consecutive days.
10 hairs were extracted from the observation area on the back of each rat every 15 days after administration, and the hair length was measured with a vernier caliper. After 60 days of administration, the skin of the experimental observation area was taken for routine tissue dehydration, paraffin embedding, HE staining, and light microscopy to observe the histopathological changes of the rat skin hair follicles and sebaceous glands. Semi-quantitative analysis was carried out in each group. The grading standards are as follows: normal skin dermal tissue cells, subcutaneous hair follicles, and sebaceous glands were marked as “one”; no hyperplasia in the dermis, limited lesions of hair follicles and sebaceous glands, and no subcutaneous inflammation, marked as “±”; no obvious hyperplasia found in the dermis, obviously cystic follicles, no obvious hyperplasia found in the sebaceous glands, and no inflammation is recorded as “+”; segmental hyperplasia of skin and dermis was not obvious, a small number of hair follicles had cystic degeneration, and sebaceous glands had mild hyperplasia and hypertrophy. No obvious inflammation under the skin was recorded as “++”; the skin and dermis tissue cells had segmental hyperplasia of different degrees, some follicles degenerated, the size of the hair follicles was uneven, and there were no cells in the periphery. There was hyperplasia of sebaceous glands, and there were few nuclei in the hyperplasia glands. Individual rats had mild inflammatory hyperplasia under the skin, which was marked as “+++”.

tyrosinase = assay: Tyrosinase intensity in skin tissue of vitiligo guinea pig model (immunohistochemistry, two-level scoring); type: in vivo; settings: n = 10; for Color (units): score in brackets for staining colour; for Number of positive cells (units): score in brackets for tyrosinase-positive cells; for Total number (units): sum of positive-cell and colour scores; for Color: tyrosinase staining colour; for Number of positive cells: tyrosinase-positive cells
Method: 10 in each group, Half male and female. Except for the blank control group, the other groups were smeared with 5% hydroquinone in the hair removal area for decolorization, 0.5 mL each time, twice a day, and the animals in the blank control group were smeared with an equal amount of normal saline every day. […] After modeling, the drug was administered in the above manner, once a day for 30 days.
The excised mouse skin tissue was fixed in 10% formalin dehydrated, cleared in xylene, embedded in paraffin, sectioned, deparaffinized to water, then 50 μL of peroxidase blocking agent (3% H2O2) was added to each section for 10 min to block endogenous peroxidase activity. The sections were immersed in 0.01 mol·L-1PBS buffer and microwaved for 10 min, added with 50 μL mouse anti-human tyrosinase monoclonal antibody, left at 37° C. for 60 min, then added with 50 μL of Elivision reagent, left at 37° C. for 30 min. The sections were then placed in freshly prepared DAB-H2O2 chromogenic solution for color development, rinsed with distilled water, stained with hematoxylin for contrast for 1 min, and sealed with neutral gum. The tyrosinase-positive product was located in the cytoplasm of the cell, shown as yellow or brownish-yellow granules or clumps in the cells under the microscope. The two-level scoring method was used to determine the results. If the number of positive cells was less than 5%, the score was 0; 5%˜25% is 1 point; 2 points for 25%˜50%; 3 points for 50%˜75%; >75% is 4 points. When classified according to staining intensity: 1 point for light yellow; 2 points for yellow or dark yellow; 3 points for brown or brownish yellow. If the sum of the two was less than 2, it was negative (−); 2-3 points as positive (+); 4-5 points as moderately positive (2+); 6-7 points as strongly positive (3+).

| Molecule | Skin hair follicles and sebaceous glands: number of rats graded ++ [1] | Skin hair follicles and sebaceous glands: number of rats graded ± [1] | Skin hair follicles and sebaceous glands: number of rats graded + [1] | Skin hair follicles and sebaceous glands: number of rats graded − [1] | Skin hair follicles and sebaceous glands: number of rats graded +++ [1] | 15 d hair length [1] | 30 d hair length [1] | 45 d hair length [1] | 60 d hair length [1] | Color (units) (tyrosinase) | Number of positive cells (units) (tyrosinase) | Total number (units) (tyrosinase) | Color (tyrosinase) | Number of positive cells (tyrosinase) [%] |
| --- | --- | --- | --- | --- | --- | --- | --- | --- | --- | --- | --- | --- | --- | --- |
| ALN-PCS [RNA interference group 3] | 2 | 3 | 4 | 1 | 0 | 8.2* mm | 8.9* mm | 14.2* mm | 16.7* mm | 2 | 3 | 5 | Yellow | 30 |
| CC(=O)Nc1ccc(C(=O)N2CCN(c3ccc(C)cc3)CC2c2ccccc2)cc1 (stereo not shown) [Compound group 4, SBC-110736] | 2 | 4 | 3 | 1 | 0 | 8.1* mm | 8.6* mm | 14.3* mm | 17.3* mm | 3 | 3 | 6 | Brownish-yellow | 30 |
| O=C(c1ccc(-n2nnc3cccnc32)cc1)N(c1ncccc1Cl)[C@@H]1CCCNC1 [Compound group 2, PF 06446846] | 1 | 5 | 2 | 2 | 0 | 9.2* mm | 10.1* mm | 15.2* mm | 18.9* mm | 3 | 4 | 7 | Brownish-yellow | 40 |
| Cc1cc(C(=O)C2=C(O)C(=O)N(CCCN3CCOCC3)C2c2ccncc2)ccc1OCc1ccccc1 (stereo not shown) [Compound group 3, SBC-115076] | 3 | 4 | 2 | 1 | 0 | 8.3* mm | 8.8* mm | 14.5* mm | 17.6* mm | 3 | 3 | 6 | Brownish-yellow | 30 |
| COc1ccc(CCC(=O)N(c2nccc3ccccc23)[C@@H]2CCCNC2)cc1 [Compound group 1, R-IMPP] | 3 | 5 | 2 | 0 | 0 | 8.9* mm | 9.9* mm | 14.7* mm | 18.2* mm | 2 | 3 | 5 | Brownish-yellow | 30 |
| Inclisran [RNA interference group 2] | 1 | 4 | 4 | 1 | 0 | 8.3* mm | 9.1* mm | 14.5* mm | 16.9* mm | 2 | 3 | 5 | Yellow | 30 |
| Alirocumab [Monoclonal antibody group 3] | 1 | 4 | 2 | 3 | 0 | 9.5* mm | 10.5* mm | 15.5* mm | 19.2* mm | 4 | 3 | 7 | Brownish-yellow | 30 |
| B1 | 0 | 4 | 3 | 3 | 0 | 9.7* mm | 10.8* mm | 15.8* mm | 19.5* mm | 4 | 4 | 7 | Brownish-yellow | 40 |
